The CheMixHub viscosity set

Assay: xn = mol fraction of the nth substance listed

CCN(CC)CC + CCC(C)O
303.15 K, 101 kPa
Settings	viscosity [mPa·s]
x1 = 0.01087	2.436
x1 = 0.02221	2.406
x1 = 0.0326	2.38
x1 = 0.04176	2.357
x1 = 0.05247	2.33
x1 = 0.06249	2.302
x1 = 0.07262	2.276
x1 = 0.08419	2.246
x1 = 0.09512	2.217

O=C1CCCCCN1 + O=C(O)c1ccccc1
101 kPa, x1 = 0.5
Settings	viscosity [mPa·s]
303.2 K	104.2
313.1 K	48.15
323.1 K	27.31

ClC(Cl)(Cl)Cl + CCCCOC(C)=O
101.33 kPa
Settings	viscosity [mPa·s]
303.15 K, x1 = 0.1942	0.664
303.15 K, x1 = 0.3145	0.685
303.15 K, x1 = 0.4207	0.702
303.15 K, x1 = 0.5252	0.72
303.15 K, x1 = 0.5754	0.732
303.15 K, x1 = 0.7049	0.759
303.15 K, x1 = 0.7537	0.774
303.15 K, x1 = 0.8196	0.788
303.15 K, x1 = 0.8765	0.803
303.15 K, x1 = 0.9415	0.823
313.15 K, x1 = 0.2041	0.587
313.15 K, x1 = 0.4028	0.619
313.15 K, x1 = 0.5068	0.634
313.15 K, x1 = 0.604	0.651
313.15 K, x1 = 0.8058	0.695

CCCOC(C)=O + CCCCOC(C)=O
viscosity [mPa·s], 101 kPa
Settings	x1 = 0.2	x1 = 0.4	x1 = 0.6	x1 = 0.8
293.15 K	0.697	0.67	0.644	0.618
313.15 K	0.538	0.519	0.5	0.481

CCN(CC)CC + C1CCCCC1
303.15 K, 101 kPa
Settings	viscosity [mPa·s]
x1 = 0.01021	0.8057
x1 = 0.01915	0.7913
x1 = 0.0299	0.7725
x1 = 0.04221	0.7556
x1 = 0.04976	0.7402
x1 = 0.0618	0.7264
x1 = 0.07115	0.7134
x1 = 0.07987	0.7009
x1 = 0.08947	0.6879
x1 = 0.09947	0.6772

ClC(Cl)(Cl)Cl + COC(C)=O
303.15 K, 101.3 kPa
Settings	viscosity [mPa·s]
x2 = 0.1004	0.763
x2 = 0.1926	0.7035
x2 = 0.2864	0.6472
x2 = 0.4018	0.587
x2 = 0.5025	0.5405
x2 = 0.6004	0.5006
x2 = 0.7001	0.4608
x2 = 0.8964	0.3807

ClC(Cl)(Cl)Cl + Cc1ccccc1C
298.15 K, 101 kPa
Settings	viscosity [mPa·s]
x1 = 0.0656	0.722
x1 = 0.2424	0.636
x1 = 0.4464	0.606
x1 = 0.5536	0.628
x1 = 0.5803	0.639
x1 = 0.6341	0.666
x1 = 0.793	0.772
x1 = 0.9312	0.872

FCCl + FC(F)(Cl)C(F)(F)Cl
Settings	viscosity [mPa·s]
312.21 K, 101.13 kPa, x1 = 0.754	0.2322

ClC(Cl)(Cl)Cl + ClC(Cl)Cl
Settings	viscosity [mPa·s]
293.15 K, 101.33 kPa, x1 = 0.2087	0.6645
293.15 K, 101.33 kPa, x1 = 0.517	0.7319
293.15 K, 101.33 kPa, x1 = 0.9083	0.9238
298.15 K, 101 kPa, x1 = 0.1566	0.569
298.15 K, 101 kPa, x1 = 0.5099	0.659
298.15 K, 101 kPa, x1 = 0.7699	0.761
298.15 K, 101 kPa, x2 = 0.2298	0.761
298.15 K, 101 kPa, x2 = 0.51	0.659
298.15 K, 101 kPa, x2 = 0.8437	0.569
298.15 K, 101.33 kPa, x1 = 0.2087	0.6296
298.15 K, 101.33 kPa, x1 = 0.517	0.6888
298.15 K, 101.33 kPa, x1 = 0.9083	0.8561
298.16 K, 101 kPa, x2 = 0.151	0.816
298.16 K, 101 kPa, x2 = 0.328	0.732
298.16 K, 101 kPa, x2 = 0.61	0.633
298.16 K, 101 kPa, x2 = 0.803	0.583
303.15 K, 101.3 kPa, x1 = 0.502	0.6248
303.15 K, 101.33 kPa, x1 = 0.2087	0.5964
303.15 K, 101.33 kPa, x1 = 0.517	0.6543
303.15 K, 101.33 kPa, x1 = 0.9083	0.8041
308.15 K, 101.33 kPa, x1 = 0.2087	0.5644
308.15 K, 101.33 kPa, x1 = 0.517	0.6241
308.15 K, 101.33 kPa, x1 = 0.9083	0.7523
313.15 K, 101.33 kPa, x1 = 0.2087	0.5501
313.15 K, 101.33 kPa, x1 = 0.517	0.5928
313.15 K, 101.33 kPa, x1 = 0.9083	0.7143
318.15 K, 101.33 kPa, x1 = 0.2087	0.523
318.15 K, 101.33 kPa, x1 = 0.517	0.5657
318.15 K, 101.33 kPa, x1 = 0.9083	0.6686
323.15 K, 101.33 kPa, x1 = 0.2087	0.5032
323.15 K, 101.33 kPa, x1 = 0.517	0.5444
323.15 K, 101.33 kPa, x1 = 0.9083	0.6335
